Results published in ChEMBL document CHEMBL1201862, “PubChem BioAssay data set” (2004).
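Protocol summary: plate cells (96-well), add compound at 5 concentrations, incubate 48 h, interpolate endpoints linearly. Abbreviation: GI50, concentration required for 50% inhibition of growth.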 The source made the active and inactive calls. Cut-off read from the data, not from the text of the source: active = GI50 up to about 1.1 µM and inactive = higher.

Columns and labels:
Assay in all cases: DTP human tumour cell line panel, 48 h
K562 = tested on: K562
ACHN = tested on: ACHN
RXF 393 = tested on: RXF 393
CCRF-CEM = tested on: CCRF-CEM
NCI-H23 = tested on: NCI-H23
UACC-257 = tested on: UACC-257
TK-10 = tested on: TK-10
HCT-15 = tested on: HCT-15
U-251 = tested on: U-251
RPMI-8226 = tested on: RPMI-8226
HCC 2998 = tested on: HCC 2998
UACC-62 = tested on: UACC-62
Malme-3M = tested on: Malme-3M
SNB-75 = tested on: SNB-75
NCI-H226 = tested on: NCI-H226
CAKI-1 = tested on: CAKI-1
NCI-H522 = tested on: NCI-H522
SNB-19 = tested on: SNB-19
HOP-92 = tested on: HOP-92

| SMILES | GI50 (K562) | GI50 (ACHN) | GI50 (RXF 393) | GI50 (CCRF-CEM) | GI50 (NCI-H23) | GI50 (UACC-257) | GI50 (TK-10) | GI50 (HCT-15) [µM] | GI50 (U-251) | GI50 (RPMI-8226) | GI50 (HCC 2998) | GI50 (UACC-62) | GI50 (Malme-3M) | GI50 (SNB-75) | GI50 (NCI-H226) | GI50 (CAKI-1) | GI50 (NCI-H522) | GI50 (SNB-19) | GI50 (HOP-92) |
| --- | --- | --- | --- | --- | --- | --- | --- | --- | --- | --- | --- | --- | --- | --- | --- | --- | --- | --- | --- |
| CC(C)(C)c1ccccc1NS(=O)(=O)c1ccccc1 | 44.9 µM (inactive) | > 100 µM (inactive) | 76.7 µM (inactive) | 62.1 µM (inactive) | > 100 µM (inactive) | 45.1 µM (inactive) | > 100 µM (inactive) | > 100 | > 100 µM (inactive) | 60.8 µM (inactive) | > 100 µM (inactive) | > 100 µM (inactive) | > 100 µM (inactive) | > 100 µM (inactive) | 21.9 µM (inactive) | 64 µM (inactive) |  |  |  |
| Nc1nc(-c2ccco2)cc(-c2ccco2)n1 | > 100 µM (inactive) | > 100 µM (inactive) | > 100 µM (inactive) | > 100 µM (inactive) | > 100 µM (inactive) |  | > 100 µM (inactive) | > 100 | > 100 µM (inactive) | > 100 µM (inactive) |  | > 100 µM (inactive) | > 100 µM (inactive) | 64.1 µM (inactive) | 71.3 µM (inactive) |  | > 100 µM (inactive) | 41.8 µM (inactive) |  |
| CCC(C)CNC1=C(NC(C)=O)C(=O)c2ccccc2C1=O (stereo unspecified) | > 100 µM (inactive) | > 100 µM (inactive) | > 100 µM (inactive) | > 100 µM (inactive) | 67.8 µM (inactive) | > 100 µM (inactive) | > 100 µM (inactive) | > 100 | > 100 µM (inactive) |  | > 100 µM (inactive) | > 100 µM (inactive) | 35.5 µM (inactive) | > 100 µM (inactive) | > 100 µM (inactive) |  | 78.2 µM (inactive) | > 100 µM (inactive) |  |
| NS(=O)(=O)c1ccc(NC(=O)c2cccn3c(=O)c4ccccc4nc23)cc1 | > 100 µM (inactive) | > 100 µM (inactive) | > 100 µM (inactive) | > 100 µM (inactive) | > 100 µM (inactive) | > 100 µM (inactive) | > 100 µM (inactive) |  | > 100 µM (inactive) | > 100 µM (inactive) |  | > 100 µM (inactive) | > 100 µM (inactive) | > 100 µM (inactive) | > 100 µM (inactive) | > 100 µM (inactive) | > 100 µM (inactive) | > 100 µM (inactive) | > 100 µM (inactive) |
| CCCCCC[C@H]1CC(=O)C2CCCC[C@@]23CC[C@H](CCl)N13.CCCCCC[C@H]1CC(=O)C2CCCC[C@@]23C[C@H](Cl)CN13 (stereo partly specified) | 28.6 µM (inactive) | 53.5 µM (inactive) |  | 33.2 µM (inactive) | 47.5 µM (inactive) | 43 µM (inactive) | 43.9 µM (inactive) | 60.3 | 29.6 µM (inactive) | 20.7 µM (inactive) | > 100 µM (inactive) | 48.1 µM (inactive) | 55.3 µM (inactive) | 27.8 µM (inactive) |  | 58.9 µM (inactive) | 17.9 µM (inactive) | 37.9 µM (inactive) | 24.2 µM (inactive) |
| N#CCCN(CCC#N)c1ccc(/C=C2\N=C(COc3ccc(Cl)cc3Cl)OC2=O)cc1 | > 100 µM (inactive) |  |  | > 100 µM (inactive) | > 100 µM (inactive) | > 100 µM (inactive) | > 100 µM (inactive) | > 100 | > 100 µM (inactive) | > 100 µM (inactive) | > 100 µM (inactive) | > 100 µM (inactive) | > 100 µM (inactive) | 71.8 µM (inactive) |  | > 100 µM (inactive) | 29.9 µM (inactive) | > 100 µM (inactive) |  |
| COc1ccc(C2S/C(=C\c3cccc(O)c3)C(=O)N2NC(=O)Cc2ccccc2)cc1 (stereo unspecified) | > 100 µM (inactive) | > 100 µM (inactive) | 12 µM (inactive) | > 100 µM (inactive) | > 100 µM (inactive) | > 100 µM (inactive) | > 100 µM (inactive) | > 100 | > 100 µM (inactive) | > 100 µM (inactive) |  | > 100 µM (inactive) | > 100 µM (inactive) | > 100 µM (inactive) | > 100 µM (inactive) | > 100 µM (inactive) | > 100 µM (inactive) |  | > 100 µM (inactive) |
| COC(=O)c1c/c(=N\NC(=O)CC(=O)Nc2ccccc2Cl)c2ccccc2o1 | > 100 µM (inactive) | > 100 µM (inactive) |  |  | > 100 µM (inactive) | > 100 µM (inactive) | > 100 µM (inactive) | > 100 | > 100 µM (inactive) | > 100 µM (inactive) | 65.3 µM (inactive) | > 100 µM (inactive) |  | > 100 µM (inactive) | 27.7 µM (inactive) | > 100 µM (inactive) | > 100 µM (inactive) | > 100 µM (inactive) |  |
| CN(C)c1nnnn1-c1c(N)n(C)c(=O)n(C)c1=O | > 100 µM (inactive) | > 100 µM (inactive) |  | > 100 µM (inactive) | > 100 µM (inactive) | > 100 µM (inactive) | > 100 µM (inactive) | > 100 | > 100 µM (inactive) | > 100 µM (inactive) | > 100 µM (inactive) | > 100 µM (inactive) | > 100 µM (inactive) | > 100 µM (inactive) | > 100 µM (inactive) | > 100 µM (inactive) | > 100 µM (inactive) | > 100 µM (inactive) | > 100 µM (inactive) |
| C[C@@H]1C[C@]2(C[C@@H](C)C3[C@@H](CC4(C)[C@@H]5CCC6C(C)(C)OC(=O)C=C[C@]67C[C@@]5(CC[C@]34C)OO7)O2)OC1=O (stereo partly specified) | 28.1 µM (inactive) | 92.5 µM (inactive) | > 100 µM (inactive) |  | > 100 µM (inactive) | 55.2 µM (inactive) | 52.1 µM (inactive) | > 100 | 73.3 µM (inactive) | > 100 µM (inactive) | > 100 µM (inactive) | 21.2 µM (inactive) | 37.9 µM (inactive) | 18.4 µM (inactive) | 24.8 µM (inactive) |  | 29.6 µM (inactive) | 49.4 µM (inactive) |  |
| C[C@]12CCC(=O)C[C@H]1CCC(O)[C@@H]2Br (stereo partly specified) | > 100 µM (inactive) | > 100 µM (inactive) |  | > 100 µM (inactive) | > 100 µM (inactive) | > 100 µM (inactive) | > 100 µM (inactive) | > 100 | > 100 µM (inactive) | > 100 µM (inactive) | > 100 µM (inactive) | > 100 µM (inactive) | > 100 µM (inactive) | > 100 µM (inactive) | > 100 µM (inactive) | > 100 µM (inactive) | > 100 µM (inactive) | > 100 µM (inactive) | > 100 µM (inactive) |
| Oc1c2c(nc3cc4c(cc13)OCO4)-c1ccccc1CC2 | > 100 µM (inactive) | > 100 µM (inactive) | 78 µM (inactive) | > 100 µM (inactive) | > 100 µM (inactive) | > 100 µM (inactive) | > 100 µM (inactive) | > 100 | > 100 µM (inactive) | > 100 µM (inactive) | > 100 µM (inactive) | > 100 µM (inactive) | > 100 µM (inactive) | 23.6 µM (inactive) | > 100 µM (inactive) |  |  | > 100 µM (inactive) |  |
